In BindingDB's records for doi:10.1021/jm801507v (AstraZeneca, 2009) one finds IC50 data, which are given here for one compound.

Assay [1] concerns the target T1, Sterol O-acyltransferase 1 (Homo sapiens, UniProt P35610).
T1 sequence (P35610 whole entry): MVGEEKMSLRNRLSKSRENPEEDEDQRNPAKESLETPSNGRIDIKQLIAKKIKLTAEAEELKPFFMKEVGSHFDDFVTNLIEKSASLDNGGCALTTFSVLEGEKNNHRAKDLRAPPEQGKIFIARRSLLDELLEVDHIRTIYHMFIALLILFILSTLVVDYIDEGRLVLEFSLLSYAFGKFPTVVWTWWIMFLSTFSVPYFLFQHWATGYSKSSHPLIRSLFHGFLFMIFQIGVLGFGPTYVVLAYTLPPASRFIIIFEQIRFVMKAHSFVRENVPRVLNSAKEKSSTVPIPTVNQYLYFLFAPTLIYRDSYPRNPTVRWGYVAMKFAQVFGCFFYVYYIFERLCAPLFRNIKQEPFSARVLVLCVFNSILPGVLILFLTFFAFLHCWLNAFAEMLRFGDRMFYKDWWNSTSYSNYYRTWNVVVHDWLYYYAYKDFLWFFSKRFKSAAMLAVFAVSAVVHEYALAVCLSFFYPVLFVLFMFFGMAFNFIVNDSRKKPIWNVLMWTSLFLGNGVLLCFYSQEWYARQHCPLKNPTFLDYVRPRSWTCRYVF
Nature of the assay: ACAT-1 Enzyme Inhibition Assay. To be noted: pH 7.4; 37 °C. As for the experimental part: The reaction was started by adding substrate [14C]oleoyl coenzyme A and incubated. After the reaction was stopped, radioactive cholesteryl oleate product was separated into the organic heptane phase. ACAT-1 activity was quantified by counting aliquots of the upper heptane layer by liquid scintillography.

Assay [2] has as its target T2, Diacylglycerol O-acyltransferase 1 (Homo sapiens, UniProt O75907).
T2 sequence (O75907 whole entry): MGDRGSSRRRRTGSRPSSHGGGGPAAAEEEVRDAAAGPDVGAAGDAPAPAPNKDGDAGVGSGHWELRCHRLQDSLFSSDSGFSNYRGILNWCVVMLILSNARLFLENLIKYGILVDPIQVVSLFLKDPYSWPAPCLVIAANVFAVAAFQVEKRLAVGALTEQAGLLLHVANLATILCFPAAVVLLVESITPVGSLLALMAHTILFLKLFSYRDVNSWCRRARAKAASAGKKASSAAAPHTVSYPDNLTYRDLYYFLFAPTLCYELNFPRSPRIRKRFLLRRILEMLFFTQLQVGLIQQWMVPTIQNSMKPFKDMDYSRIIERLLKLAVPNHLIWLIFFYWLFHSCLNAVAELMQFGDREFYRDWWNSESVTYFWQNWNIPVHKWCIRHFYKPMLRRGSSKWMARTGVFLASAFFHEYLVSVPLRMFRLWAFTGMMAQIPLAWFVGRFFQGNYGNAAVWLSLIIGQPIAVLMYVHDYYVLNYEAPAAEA
Nature of the assay: DGAT Enzyme Inhibition Assay. To be noted: pH 7.4; 22 °C. As for the experimental part: The assay mixture contains test compound, membrane protein, and 1,2 dioleoyl-sn-glycerol in a 96-deep well plate. The reaction was started by adding substrate [14C]oleoyl coenzyme A and incubated. After the reaction was stopped, radioactive triolein product was separated into the organic heptane phase. DGAT activity was quantified by counting aliquots of the upper heptane layer by liquid scintillography.

SMILES strings stand for the structures. pIC50: −log10 of the molar value.

On to `CC1(C)Oc2ncnc(N)c2N=C1c1ccc(C23CCCC(CC(=O)O)(CC2)CC3)cc1` [2-[5-(4-{4-amino-7,7-dimethyl-7H-pyrimido[4,5-b][1,4]oxazin-6-yl}phenyl)bicyclo[3.2.2]nonan-1-yl]acetic acid], for which the pIC50 (in general, the IC50 on a negative log10 scale, so that one unit is a factor of ten) in assay [1] was 4.55; in assay [2] it was 7.16.
